One assay has as its system A549 cells. The experiment in a line: Ras cellular assay, growth of cells with K-Ras G12S mutation (CellTiter-Glo). The assay is classed as cell-based. To be noted: Homo sapiens, cell growth, Example 9, G12S mutation, read-out: IC50 against A549 cells. In a few lines:
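Growth inhibition IC50 values come from four-parameter fits of CellTiter-Glo luminescence, read about 6 days after compound addition. G12S-mutant A549 cells (e.g. 800/well, RPMI-1640 + 10% heat-inactivated FBS) were plated in tissue-culture-treated or ultra-low-attachment 384-well format. Dosing began the following day with serial dilutions, e.g. 10 points, 3-fold.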

Another assay concerns the target T1, K-Ras G12V (Homo sapiens, UniProt P01116, G12V).
T1 construct: made in house; host or cells: E. coli BL21 (DE3)
The experiment in a line: HTRF resonance energy transfer assay, K-Ras G12V / SOS1 interaction. It counts as biochemical. The following applies: HTRF assay of Example 5; read-out: IC50 against K-Ras G12V. In a few lines:
(§1)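 Compounds, tested in duplicate at 10 μM down to 0.01 μM, were read after about 10 min or more by HTRF as the 665/620 nm emission ratio (337 nm excitation) to derive IC50. This ratio reports FRET between an anti-GST-Eu donor on GST-K-Ras (wild-type or mutant) and an anti-6His-XL665 acceptor on His-hSOS1. Buffer: ~5 mM HEPES pH 7.4, 150 mM NaCl, 1 mM DTT, 0.05% BSA, 0.0025% Igepal.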
For orientation: TR-FRET usually uses a lanthanide donor and a delayed reading to cut background.

For the next assay, the system named is GP2D cells. The experiment in a line: Ras cellular assay, growth of cells with K-Ras G12D mutation (CellTiter-Glo). The assay is classed as cell-based. The following applies: cell growth, Example 9, G12D mutation, read-out: IC50 against GP2D cells. For orientation: In ATP-based viability assays light output follows the ATP content of the culture.
Another assay has as its target T2, K-Ras WT (Homo sapiens, UniProt P01116).
T2 construct: made in house; host or cells: E. coli BL21 (DE3)
The experiment in a line: HTRF resonance energy transfer assay, K-Ras WT / SOS1 interaction. The assay is classed as biochemical. To be noted: HTRF assay of Example 5; read-out: IC50 against K-Ras WT. In a few lines:
as §1

The next assay addresses T3, K-Ras G12S (Homo sapiens, UniProt P01116, G12S).
T3 construct: made in house; host or cells: E. coli BL21 (DE3)
The experiment in a line: HTRF resonance energy transfer assay, K-Ras G12S / SOS1 interaction. It counts as biochemical. To be noted: HTRF assay of Example 5; read-out: IC50 against K-Ras G12S. The gist of the method: as §1

The target in another assay is T4, K-Ras G12D (Homo sapiens, UniProt P01116, G12D).
T4 construct: made in house; host or cells: E. coli BL21 (DE3)
T4 sequence (P01116 1-188 isoform P01116-2 G12D): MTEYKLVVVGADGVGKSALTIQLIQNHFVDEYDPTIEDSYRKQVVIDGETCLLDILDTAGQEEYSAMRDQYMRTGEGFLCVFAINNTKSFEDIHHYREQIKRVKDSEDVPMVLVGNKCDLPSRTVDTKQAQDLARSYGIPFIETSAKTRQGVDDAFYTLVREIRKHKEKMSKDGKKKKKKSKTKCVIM
The experiment in a line: HTRF resonance energy transfer assay, K-Ras G12D / SOS1 interaction. It counts as biochemical. The following applies: HTRF assay of Example 5; read-out: IC50 against K-Ras G12D. In a few lines:
as §1

In another assay the test system is SW620 cells. The experiment in a line: Ras cellular assay, growth of cells with K-Ras G12V mutation (CellTiter-Glo). It counts as cell-based. To be noted: Homo sapiens, SW-620; cell growth, Example 9, G12V mutation; read-out: IC50 against SW620 cells. The gist of the method: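 IC50 values came from a four-parameter fit of CellTiter-Glo viability, read roughly 6 days after dosing with e.g. a 10-point threefold dilution series. G12V-mutant SW620 cells (e.g. 800 per well) had been plated the previous day in RPMI-1640/10% heat-inactivated FBS, on tissue culture-treated or ultra-low attachment plates.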

Some results are limits rather than exact numbers.

T1 sequence (P01116 1-188 isoform P01116-2 G12V): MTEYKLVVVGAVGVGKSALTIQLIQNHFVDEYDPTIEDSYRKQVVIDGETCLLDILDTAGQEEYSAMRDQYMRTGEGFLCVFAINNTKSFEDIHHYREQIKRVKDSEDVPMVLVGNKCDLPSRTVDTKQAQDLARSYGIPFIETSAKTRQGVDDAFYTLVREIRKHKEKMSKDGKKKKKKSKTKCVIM
T2 sequence (P01116 1-188 isoform P01116-2): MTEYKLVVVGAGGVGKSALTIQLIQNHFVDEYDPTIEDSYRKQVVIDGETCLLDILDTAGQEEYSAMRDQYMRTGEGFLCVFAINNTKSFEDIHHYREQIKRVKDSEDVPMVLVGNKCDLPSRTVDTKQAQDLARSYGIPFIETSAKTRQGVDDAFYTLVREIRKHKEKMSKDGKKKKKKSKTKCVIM
T3 sequence (P01116 1-188 isoform P01116-2 G12S): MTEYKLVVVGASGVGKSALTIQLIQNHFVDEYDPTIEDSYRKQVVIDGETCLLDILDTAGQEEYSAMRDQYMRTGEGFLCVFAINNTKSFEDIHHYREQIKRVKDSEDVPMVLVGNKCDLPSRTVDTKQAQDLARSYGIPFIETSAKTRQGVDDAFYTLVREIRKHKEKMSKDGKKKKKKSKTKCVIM

Take `N#Cc1c(N)sc2c(F)ccc(-c3c(Cl)c4c5c(nc(OC[C@@]67CCCN6C[C@H](F)C7)nc5c3F)N(C3CCOC3)CC(CO)O4)c12` (stereo partly drawn) [Compound 681, 2-amino-4-(8-chloro-10-fluoro-2-(((2R,7aS)-2-fluorotetrahydro-1H-pyrrolizin-7a(5H)-yl)methoxy)-6-(hydroxymethyl)-4-(tetrahydrofuran-3-yl)-5,6-dihydro-4H-[1,4]oxazepino[5,6,7-de]quinazolin-9-yl)-7-fluorobenzo[b]thiophene-3-carbonitrile]: the IC50 (commonly the concentration needed to halve the response being measured) with A549 cells was below 5000 nM; on K-Ras G12V, below 100 nM; with GP2D cells, below 500 nM; on K-Ras WT, below 100 nM; on K-Ras G12S it was below 100 nM; at K-Ras G12D, below 100 nM. The IC50 in the assay on SW620 cells is below 5000 nM.
For `N#Cc1c(N)sc2c(F)ccc(-c3c(Cl)c4c5c(nc(OC[C@@]67CCCN6C[C@H](F)C7)nc5c3F)N(C3CCOC3)CCO4)c12` (stereo partly drawn) [Compound 688, 2-amino-4-(8-chloro-10-fluoro-2-(((2R,7aS)-2-fluorotetrahydro-1H-pyrrolizin-7a(5H)-yl)methoxy)-4-(tetrahydrofuran-3-yl)-5,6-dihydro-4H-[1,4]oxazepino[5,6,7-de]quinazolin-9-yl)-7-fluorobenzo[b]thiophene-3-carbonitrile], the IC50 was below 5000 nM in the assay with A549 cells; below 100 nM on K-Ras G12V; below 500 nM in the assay with GP2D cells; below 100 nM at K-Ras WT; below 100 nM on K-Ras G12S; below 100 nM at K-Ras G12D. Further, the IC50 in the assay on SW620 cells was below 5000 nM.
As for `N#Cc1c(N)sc2c(F)ccc(-c3c(Cl)c4c5c(nc(OC[C@@]67CCCN6C[C@H](F)C7)nc5c3F)N(C3CC5(CCN(C=O)C5)C3)CCO4)c12` (stereo partly drawn) [Compound 698, 2-amino-4-(8-chloro-10-fluoro-2-(((2R,7aS)-2-fluorotetrahydro-1H-pyrrolizin-7a(5H)-yl)methoxy)-4-(6-formyl-6-azaspiro[3.4]octan-2-yl)-5,6-dihydro-4H-[1,4]oxazepino[5,6,7-de]quinazolin-9-yl)-7-fluorobenzo[b]thiophene-3-carbonitrile], the IC50 with A549 cells is below 5000 nM; on K-Ras G12V, below 100 nM; in the assay with GP2D cells, below 500 nM; on K-Ras WT it was below 100 nM; at K-Ras G12S it was below 100 nM; at K-Ras G12D, below 100 nM. Moreover, the IC50 in the assay with SW620 cells is below 5000 nM.
Take `N#Cc1c(N)sc2c(F)ccc(-c3c(Cl)c4c5c(nc(OC[C@@]67CCCN6C[C@H](F)C7)nc5c3F)N(C3CCN(C(=O)C[C@@H]5CCOC5)C3)CCO4)c12` (stereo partly drawn) [Compound 699, 2-amino-4-(8-chloro-10-fluoro-2-(((2R,7aS)-2-fluorotetrahydro-1H-pyrrolizin-7a(5H)-yl)methoxy)-4-(1-(2-((S)-tetrahydrofuran-3-yl)acetyl)pyrrolidin-3-yl)-5,6-dihydro-4H-[1,4]oxazepino[5,6,7-de]quinazolin-9-yl)-7-fluorobenzo[b]thiophene-3-carbonitrile]: the IC50 is below 5000 nM with A549 cells; below 100 nM on K-Ras G12V; below 500 nM in the assay on GP2D cells; below 100 nM at K-Ras WT; below 100 nM on K-Ras G12S; below 100 nM on K-Ras G12D. In the assay with SW620 cells, the IC50 is below 5000 nM.
As for `N#CCC1COc2c(Cl)c(-c3ccc(F)c4sc(N)c(C#N)c34)c(F)c3nc(OC[C@@]45CCCN4C[C@H](F)C5)nc(c23)N1CC(F)F` (stereo partly drawn) [Compound 700, 2-amino-4-(8-chloro-5-(cyanomethyl)-4-(2,2-difluoroethyl)-10-fluoro-2-(((2R,7aS)-2-fluorotetrahydro-1H-pyrrolizin-7a(5H)-yl)methoxy)-5,6-dihydro-4H-[1,4]oxazepino[5,6,7-de]quinazolin-9-yl)-7-fluorobenzo[b]thiophene-3-carbonitrile], the IC50 was below 5000 nM in the assay with A549 cells; below 100 nM on K-Ras G12V; below 500 nM in the assay with GP2D cells; below 100 nM at K-Ras WT; below 100 nM at K-Ras G12S; below 100 nM at K-Ras G12D. In the assay on SW620 cells, the IC50 was below 5000 nM.
As for `N#Cc1c(N)sc2c(F)ccc(-c3c(Cl)c4c5c(nc(OC[C@@]67CCCN6C[C@H](F)C7)nc5c3F)N(CC(F)F)C(CC(F)F)CO4)c12` (stereo partly drawn) [Compound 701, 2-amino-4-(8-chloro-4,5-bis(2,2-difluoroethyl)-10-fluoro-2-(((2R,7aS)-2-fluorotetrahydro-1H-pyrrolizin-7a(5H)-yl)methoxy)-5,6-dihydro-4H-[1,4]oxazepino[5,6,7-de]quinazolin-9-yl)-7-fluorobenzo[b]thiophene-3-carbonitrile], the IC50 is below 5000 nM in the assay with A549 cells; below 100 nM at K-Ras G12V; below 500 nM in the assay on GP2D cells; below 100 nM on K-Ras WT; below 100 nM at K-Ras G12S; below 100 nM at K-Ras G12D. Further, the IC50 in the assay with SW620 cells is below 5000 nM.
As for `N#CCCC1CN(CC(F)F)c2nc(OC[C@@]34CCCN3C[C@H](F)C4)nc3c(F)c(-c4ccc(F)c5sc(N)c(C#N)c45)c(Cl)c(c23)O1` (stereo partly drawn) [Compound 704, 2-amino-4-(8-chloro-6-(2-cyanoethyl)-4-(2,2-difluoroethyl)-10-fluoro-2-(((2R,7aS)-2-fluorotetrahydro-1H-pyrrolizin-7a(5H)-yl)methoxy)-5,6-dihydro-4H-[1,4]oxazepino[5,6,7-de]quinazolin-9-yl)-7-fluorobenzo[b]thiophene-3-carbonitrile], the IC50 was below 5000 nM in the assay with A549 cells; below 100 nM on K-Ras G12V; below 500 nM in the assay with GP2D cells; below 100 nM at K-Ras WT; below 100 nM on K-Ras G12S; below 100 nM at K-Ras G12D. Also, the IC50 with SW620 cells was below 5000 nM.
In the case of `N#Cc1c(N)sc2c(F)ccc(-c3c(Cl)c4c5c(nc(OC[C@@]67CCCN6C[C@H](F)C7)nc5c3F)N(C3CCN(C(=O)[C@H]5CCCO5)C3)CCO4)c12` (stereo partly drawn) [Compound 705, 2-amino-4-(8-chloro-10-fluoro-2-(((2R,7aS)-2-fluorotetrahydro-1H-pyrrolizin-7a(5H)-yl)methoxy)-4-(1-((R)-tetrahydrofuran-2-carbonyl)pyrrolidin-3-yl)-5,6-dihydro-4H-[1,4]oxazepino[5,6,7-de]quinazolin-9-yl)-7-fluorobenzo[b]thiophene-3-carbonitrile], the IC50 in the assay on A549 cells is below 5000 nM; at K-Ras G12V, below 100 nM; in the assay on GP2D cells, below 500 nM; on K-Ras WT, below 100 nM; on K-Ras G12S it was below 100 nM; on K-Ras G12D, below 100 nM. The IC50 in the assay on SW620 cells was below 5000 nM.
On to `N#Cc1c(N)sc2c(F)ccc(-c3c(Cl)c4c5c(nc(OC[C@@]67CCCN6C[C@H](F)C7)nc5c3F)N(CCOC(F)F)CCO4)c12` [Compound 713, 2-amino-4-(8-chloro-4-(2-(difluoromethoxy)ethyl)-10-fluoro-2-(((2R,7aS)-2-fluorotetrahydro-1H-pyrrolizin-7a(5H)-yl)methoxy)-5,6-dihydro-4H-[1,4]oxazepino[5,6,7-de]quinazolin-9-yl)-7-fluorobenzo[b]thiophene-3-carbonitrile], for which the IC50 in the assay with A549 cells is below 5000 nM; on K-Ras G12V, below 100 nM; with GP2D cells it was below 500 nM; on K-Ras WT, below 100 nM; at K-Ras G12S, below 100 nM; on K-Ras G12D, below 100 nM. Besides, the IC50 in the assay with SW620 cells is below 5000 nM.
For the compound `N#Cc1c(N)sc2c(F)ccc(-c3c(Cl)c4c5c(nc(OC[C@@]67CCCN6C[C@H](F)C7)nc5c3F)N([C@@H]3CCN(C=O)C3)CCO4)c12` [Compound 716, 2-amino-4-(8-chloro-10-fluoro-2-(((2R,7aS)-2-fluorotetrahydro-1H-pyrrolizin-7a(5H)-yl)methoxy)-4-((R)-1-formylpyrrolidin-3-yl)-5,6-dihydro-4H-[1,4]oxazepino[5,6,7-de]quinazolin-9-yl)-7-fluorobenzo[b]thiophene-3-carbonitrile], the IC50 was below 5000 nM in the assay on A549 cells; below 100 nM at K-Ras G12V; below 500 nM in the assay with GP2D cells; below 100 nM on K-Ras WT; below 100 nM on K-Ras G12S; below 100 nM at K-Ras G12D. Moreover, the IC50 with SW620 cells is below 5000 nM.
